Data: US20080207522A1, “Antimicrobial Peptides” (priority 2004, published 2008)
Several values for one entry are separate records, joined by “and”; a condition that tells them apart may be missing. Identical values can stand only once.

Columns and labels:
[1] = tested on: Pseudomonas aeruginosa strain H1001; test: Assay for the cleaved (free, soluble) peptides from cellulose support, luminescence killing assay; type: cell-based; design: key: 1: Peptides showing stronger killing than Bac2A at a 4 to 8-fold higher dilution; Peptides showing stronger killing compared to that of Bac2A at a 4-fold higher dilution; 3: Peptides similar to Bac2A; 4: Peptides similar to Bac2A at the highest concentration but demonstrating weaker killing at a 2-fold dilution; 5: Peptides giving very weak or no killing at a 2-fold dilution; 6: Peptides with weak killing activity at the highest concentration; conditions: free (cleaved) peptides, killing relative to Bac2A
Description: Assay for the cleaved peptides from cellulose support. The peptides were cleaved from the dried membrane in an ammonia atmosphere overnight, resulting in free peptides with an amidated C-terminus. The free peptides contained two β-alanines at the C-terminus, in addition to being amidated due to the linker between the cellulose membrane and the peptide sequence. The peptide spots were punched out and transferred in a 96-well microtiter plate. Serial dilutions were carried out from the membrane spots. Four rows were filled with four controls including two with Bac2A and two with of an unrelated peptide. The other eight rows were used for serial dilution steps of the peptide variants. An overnight culture of Pseudomonas aeruginosa strain H1001 was diluted 1:500 using either LB media or 100 mM Tris buffer pH 7.3, 20 mM glucose and was added to the wells (100 μl/well) containing the peptide spots. In all other wells 50 μl were added. The microtiter plate was incubated for 30 min at 37° C. to release the peptides from the membrane. Subsequently, a dilution series were performed and the plate was incubated at 37° C. The luminescence produced by the ATP dependent luciferase system were detected in a time dependent manner using a Tecan Spectra Fluor plus.
(§1) Strains. For the killing assay a mini-Tn5-lux mutant in Pseudomonas aeruginosa H103 was used. The strain is called H1001 and contains a fliC::luxCDABE transcriptional fusion resulting in constitutive expression of luciferase. The bacterial strains used for the antimicrobial activity assays included Escherichia coli UB1005 (F-, nalA37, metB1), a wild-type Salmonella enterica ssp. Typhimurium (S. Typhimurium), wild-type Pseudomonas aeruginosa PAO1 strain H103, Enterococcus faecalis ATCC29212, Staphylococcus aureus ATCC25923, and a clinical isolate of Staphylococcus epidermidis obtained from Dr. D. Speert (Department of Medicine, University of British Columbia). Antifungal activity was tested using a lab isolate of Candida albicans obtained from Dr. B. Dill (Department of Microbiology and Immunology, University of British Columbia).
Peptide synthesis on cellulose is a very effective and inexpensive way to investigate many different peptide variants for one particular activity. However, one of the problems of this technique is the low peptide density synthesized on the membrane, about 280 nmol per cm2. An average peptide spot used for the experiments presented is about 0.3 cm2. Therefore, an assay had to be developed that was sensitive enough to show activity with this amount of peptides. P. aeruginosa H1001 has a reporter system (e.g., a luciferase gene cassette) incorporated into the bacterial chromosome in the fliC gene (involved in flagellar biosynthesis) that is constitutively expressed. It will thus produce light if ATP is present. When this strain is killed, e.g. by peptides, the amount of light produced will decrease due to a decrease in ATP levels in the killed cells. This action can thus be monitored by detecting luminescence in a microtiter plate luminescence reader over time. The volume and amount of cells per well were optimized for this assay. After screening, the killing action was monitored with small amounts of the parent peptide Bac2A (2 μg/ml of free peptide).
Forty-nine scrambled peptides (Bac002-Bac050) were synthesized on the cellulose support and then cleaved by ammonia gas resulting in free peptides with an amidated C-terminus including the linker. The peptide spots were transferred to a 96-well microtiter plate and incubated for 30 min to dissociate the peptides from the cellulose. After serial dilution and addition of strain H1001, luminescence was recorded in a time dependent manner (FIG. 1). All 50 scrambled peptides were compared to Bac2A ([…]-NH2; SEQ ID NO: 1) by this assay (see Table 2). […] Further since all scrambled peptides had some activity, a sequence-specific interaction of the peptides with a receptor or target could be excluded.

[2] = tested on: Pseudomonas aeruginosa strain H1001 fliC::luxCDABE; test: Luminescence-based assay for the non-cleaved (bound) peptides on cellulose membranes; type: cell-based; conditions: for Luminescence at the given time in minutes: 0 / Luminescence at the given time in minutes: 20 / Luminescence at the given time in minutes: 40 / Luminescence at the given time in minutes: 60 / Luminescence at the given time in minutes: 80 / Luminescence at the given time in minutes: 100 / Luminescence at the given time in minutes: 120 / Luminescence at the given time in minutes: 180 / Luminescence at the given time in minutes: 240: cellulose-bound peptide; for Luminescence at the given time in minutes: 0: 0 min; for Luminescence at the given time in minutes: 20: 20 min; for Luminescence at the given time in minutes: 40: 40 min; for Luminescence at the given time in minutes: 60: 60 min; for Luminescence at the given time in minutes: 80: 80 min; for Luminescence at the given time in minutes: 100: 100 min; for Luminescence at the given time in minutes: 120: 120 min; for Luminescence at the given time in minutes: 180: 180 min; for Luminescence at the given time in minutes: 240: 240 min; for Activity Class bound: uncleaved cellulose-bound peptides; for ability to inhibit light production (luminescence): cellulose bound peptide spots, three hours at 37° C., FIG. 2
Description: Luminescence-based MIC assay for the non-cleaved peptides on cellulose membranes. The peptide spots were punched out and transferred to a 96 well microtiter plate with a clear polystyrene bottom and opaque white polypropylene sides (PerkinElmer, Boston, USA). The spots were washed two times with 100% ethanol for 5 min and afterwards equilibrated five times with 100 mM Tris buffer pH 7.3 for 5 min. An overnight culture of Pseudomonas aeruginosa strain H1001 fliC::luxCDABE was diluted 1:50 in new MH medium and incubated at 37° C. to an OD600 of 0.35. This bacterial culture was diluted 1:25 into 10 mM Tris-HCl buffer, pH 7.3 containing 20 mM glucose. Fifty μl of this culture was added to all wells of the microtiter plate and incubated at 37° C. The luminescence of the strain produced by the ATP-dependent luciferase system was detected in a time dependent manner using a Tecan Spectra Fluor plus (Tecan, Austria). At the end of the experiment, the membranes were cleaned by washing the spots two times with 100% ethanol for five minutes. After removing the ethanol the membrane was air-dried.
as §1
The same set of peptides, as well as the reversed sequence of Bac2A-R ([…]; SEQ ID NO: 2166), were synthesized on cellulose and left uncleaved. The production of light was initially compared in wells containing spots of Bac2A, Bac2A-R (with the reversed sequence of Bac2A), the unrelated negative-control peptide, or, as additional controls, only cellulose, or only bacteria (FIG. 2).
As a control, the negative control (unrelated) peptide Bac429 and parent peptide Bac2A (=Bac001) were used in several different wells of the microtiter plate. Luminescence (relative light units; RLU) was measured at 14 different time points, 9 of which are shown. To permit comparison of the data with the free peptide data set, the result for each peptide was classified into six different groups, like the data set with the free peptides (Table 2). […] For the soluble peptides the following classes were established: […]

Sequence	Activity Class Soluble [1]	Luminescence at the given time in minutes: 0 [2]	Luminescence at the given time in minutes: 20 [2]	Luminescence at the given time in minutes: 40 [2]	Luminescence at the given time in minutes: 60 [2]	Luminescence at the given time in minutes: 80 [2]	Luminescence at the given time in minutes: 100 [2]	Luminescence at the given time in minutes: 120 [2]	Luminescence at the given time in minutes: 180 [2]	Luminescence at the given time in minutes: 240 [2]	Activity Class bound [2]	ability to inhibit light production (luminescence) [2]
AAVRRRVRLVII [Bac010]	1	4380 RLU	6719 RLU	4170 RLU	1628 RLU	562 RLU	129 RLU	121 RLU	99 RLU	56 RLU	3 (Peptides similar to Bac2A resulting in lux values of less than 500 after 240 min.)	–
ARAILIRVVRRV [Bac025]	3	4354 RLU	6728 RLU	3660 RLU	1127 RLU	343 RLU	113 RLU	115 RLU	114 RLU	80 RLU	3 (Peptides similar to Bac2A resulting in lux values of less than 500 after 240 min.)	–
ARIARRVRILVV [Bac021]	4	5470 RLU	7247 RLU	4581 RLU	1967 RLU	683 RLU	278 RLU	196 RLU	129 RLU	128 RLU	3 (Peptides similar to Bac2A resulting in lux values of less than 500 after 240 min.)	–
ARRARIRILVVV [Bac032]	4	4649 RLU	6342 RLU	4584 RLU	2088 RLU	595 RLU	148 RLU	107 RLU	54 RLU	33 RLU	3 (Peptides similar to Bac2A resulting in lux values of less than 500 after 240 min.)	–
GATPEDLNQKLS [Bac429, negative control (unrelated) peptide, reference compound]	–	4295 RLU and 4593 RLU and 4337 RLU and 4761 RLU and 4537 RLU	7478 RLU and 7525 RLU and 7118 RLU and 7536 RLU and 7275 RLU	6031 RLU and 6900 RLU and 6593 RLU and 6318 RLU and 6459 RLU	5770 RLU and 6732 RLU and 6716 RLU and 6102 RLU and 6149 RLU	5449 RLU and 6701 RLU and 6273 RLU and 5996 RLU and 6092 RLU	4779 RLU and 6812 RLU and 6453 RLU and 6086 RLU and 5799 RLU	4438 RLU and 6872 RLU and 6210 RLU and 5899 RLU and 5611 RLU	3939 RLU and 7674 RLU and 6656 RLU and 6384 RLU and 5656 RLU	–	–	no activity in decreasing luminescence
IILAVRAVRRVR [Bac029]	–	4538 RLU	6664 RLU	5062 RLU	3963 RLU	2745 RLU	1799 RLU	1279 RLU	1012 RLU	942 RLU	4 (Peptides reducing luminescence (lux) values to between 500 to 1499 after 240 min.)	–
IVVRRRRAALVI [Bac030]	–	4618 RLU	7325 RLU	5921 RLU	5326 RLU	4981 RLU	4418 RLU	4087 RLU	3861 RLU	3679 RLU	6 (Peptides having residual luminescence (lux) values greater than 3000 after 240 min.)	–
RAVRIVVIRALR [Bac2A-R]	–	–	–	–	–	–	–	–	–	–	–	only a slightly decreased ability to inhibit light production
RRRAIVRVVAIL [Bac023]	–	3958 RLU	7783 RLU	5656 RLU	3751 RLU	1827 RLU	761 RLU	329 RLU	123 RLU	79 RLU	3 (Peptides similar to Bac2A resulting in lux values of less than 500 after 240 min.)	–
RVLIARVVRAIR [Bac027]	–	4437 RLU	6695 RLU	4991 RLU	4421 RLU	4011 RLU	3545 RLU	3100 RLU	3182 RLU	3513 RLU	6 (Peptides having residual luminescence (lux) values greater than 3000 after 240 min.)	–
